The target of one test is SARS-CoV PLpro (Severe acute respiratory syndrome coronavirus, UniProt P0C6X7). The class given is biochemical.
In a further test the test system is SARS-CoV. The class given is cell-based. The conditions noted are these: SARS-CoV infected Vero E6 cells.

Consider “1-[1-(2-Naphthyl)ethyl]-4-(4-methoxybenzylamino)carbonylpiperazine [Compound 20]”, for which, on SARS-CoV PLpro, the “PLpro inhibitory activity (in words)” value is listed as “no activity against PLpro”.
For `COc1ccc(CNC(=O)C2CCN(Cc3cccc4ccccc34)CC2)cc1` [Compound 3], in the test on SARS-CoV, the “antiviral activity (in words)” value is recorded as “does not show any antiviral activity”.
Consider `COc1ccccc1CNC(=O)C1CCN(Cc2cccc3ccccc23)CC1` [Compound 7a, 1-[(1-Naphthyl)methyl]-4-[(2-methoxybenzylamino)carbonyl]piperidine], for which the “PLpro inhibitory activity (in words)” value at SARS-CoV PLpro was “very poor inhibitory activity”.
Take `COc1ccccc1CNC(=O)C1CCN([C@H](C)c2cccc3ccccc23)CC1` [Compound 15a, 1-[(R)-1-(1-Naphthyl)ethyl]-4-(2-methoxybenzylamino)carbonylpiperidine]: on SARS-CoV PLpro, the “reduction in potency over 15b and 15c” value worked out at 3 fold.
For `COc1ccc(CNC(=O)C2CCN([C@H](C)c3cccc4ccccc34)CC2)cc1` [Compound 15c, 1-[(R)-1-(1-Naphthyl)ethyl]-4-(4-methoxybenzylamino)carbonylpiperidine], on SARS-CoV PLpro, the “potency enhancement over 3” value is given as greater than 170 fold.
With `COc1cccc(CNC(=O)C2CCN([C@@H](C)c3ccc4ccccc4c3)CC2)c1` [Compound 15f, 1-[(S)-1-(2-Naphthyl)ethyl]-4-(3-methoxybenzylamino)carbonylpiperidine], in the test on SARS-CoV, the “antiviral activity (in words)” value is recorded as “no antiviral activity”. Also, the “more potent than the 2(R)-derivative 15d” value on SARS-CoV PLpro turned out to be 2 fold.
With `CC(C)(c1cccc2ccccc12)N1CCC(C(=O)NCc2ccc3c(c2)OCO3)CC1` [Compound 15k, 1-[1-Methyl-1-(1-naphthyl)ethyl]-4-[3,4-(methylenedioxy)benzylamino]carbonylpiperidine], on SARS-CoV PLpro, the “PLpro inhibitory activity (in words)” value was “inactive”.

Values taken from paper PMC2918394 (Journal of medicinal chemistry, 2010).
